{
  "source": "patent EP4205768A1",
  "about": "“MAGNETIC SOLID LIPID NANOPARTICLES, METHODS AND USES THEREOF” (priority 2021, dated 2023)",
  "key": {"[1]": {"test_system": "Hs578t tumor", "assay": "In ovo (CAM) tumor growth model", "type": "in vivo, chicken", "conditions": "2xIC50 (DOX concentration), treated at day 13, read at day 17", "method": "(§1) (A) In ovo pictures at day 13 of embryo development and in ovo and ex ovo pictures at day 17; representative images were taken at 20x in a Zeiss stereomicroscope. (B) Graphical representation of tumor growth. Data was analyzed by one-way ANOVA and the results are representative for the mean of at least 15 eggs per group;^∗∗∗p<0.0001 ^∗p<0.05. Hs578t cells were used to establish a TNBC chicken egg model. Fertilized eggs were incubated for 9 days and, at this time, the chicken embryo is surrounded by the CAM which provides nutrients for its development. At day 13 of development, the tumor mass could be visualized and the resulting tumors were treated with 2xlC50 EBR85-functionalized nanoparticles (corresponding to DOX concentration). The same concentration of DOX was used for the group treated with DOX alone. Also, a control group treated with DMEM medium was used to evaluate tumorgrowth. […] As observed in Figure 16, a significant reduction on tumor size could be appreciated for the EBR85-treated group, comparing to the control and DOX-treated groups."}, "[2]": {"test_system": "chick embryo", "assay": "Toxicity to the embryo in the in ovo model", "type": "in vivo, chicken", "conditions": "2xIC50 (DOX concentration), throughout the experiment", "method": "as §1"}, "[3]": {"test_system": "triple negative breast cancer cells (Hs-578T)", "assay": "Resazurine cell viability assay, 2D culture, with or without magnetic hyperthermia", "type": "cell-based", "conditions": "Homo sapiens", "method": "In an embodiment, 2D- cell culture was prepared. Hs-578T and MBA-MB-231 TNBC cell lines (ATCC HTB-126 and ATCC Htb-26, respectively) were grown in Dulbecco's Modified Eagle's Medium (DMEM) supplemented with 10% foetal bovine serum and 1% penicillin/streptomycin. THP-1 peripheral blood monocytes (ATCC TIB-202) were grown in Gibco Roswell Park Memorial Institute (RPMI) medium supplemented with 10% foetal bovine serum and 1% penicillin/streptomycin. All cell lines were incubated at 37 °C in a 5% CO2 atmosphere.\nIn an embodiment, cell viability was assessed. The Resazurine assay was used to calculate the cell viability. The assay is based on the reduction by living cells of the oxidized blue dye to a pink fluorescent resorufin product. […] The fluorescence of each condition was then read with an Biotek Synergy H1 plate reader, and compared to the controls using the formula {Viability = (Treated cells−blank)/(Untreated cells−blank) × 100 [formula] }. […] For each, the inhibitory concentration 50 (IC50) of each formulation was calculated using the DRC R-package. […] The activity gain (AG) for the different formulations was calculated as {AGF=100×(IC50^(free DOX) −IC50^mSLNP)/(IC50^(free DOX))} [formula] , whilst the AG of the magnetic hyperthermia event was calculated as {AGMH=100×(IC50^noHT −IC50^HT)/(IC50^noHT)} [formula] . […]"}, "[4]": {"test_system": "Hs-578T polyspheroids", "assay": "3D polyspheroid growth assay with dual treatment (formulation + AMF)", "type": "cell-based", "conditions": "2 µM relative to DOX + 1h AMF on days 1, 3 and 5; monitored 19 days", "method": "In an embodiment, 3D spheroids were prepared. In a 96-well plate was a hot and sterile solution of 1% agarose added (100 µL) and left to cool for 30 min at 4 °C. Then, the plate was tempered and 20000 cancer cells added to each well in 120 µ L of medium. The plate was centrifugated at 800 G during 30 min to promote the formation of the spheroid. The Spheroids were incubated for one week with a medium change every 3 days, until a small dense Spheroid was formed. These spheroids were used in confocal microscopy, or to form poly-spheroids. […]\nIn an embodiment, growth assay was performed. […] The polyspheroids were monitored every 2 days before treatments or medium change, using an inverted phase-contrast microscope (Nikon Eclipse TS100, Nikon Corporation, Tokyo, Japan) connected to a digital camera (Nikon, DS-Fi1). […] The images were analyzed with image J and R statistical language, using R-packages imager and EBImage, to determine the area of each polyspheroids treated with each condition for every day analyzed. The growth of the polyspheroids were normalized in regards to their own initial area at the start of the experiment, and calculated as { Growth = 100 × (Area−Area^day1)/(Area^day1) [formula] }. The daily growth was calculated as {Growth^daily=(∑Growth)/(19 days)} [formula] . […]"}, "[5]": {"test_system": "Hs-578T cells", "assay": "Wound-healing (cell migration) assay", "type": "cell-based", "conditions": "at the IC50 DOX concentration, up to 48h", "method": "The effect of the functionalized mSLNs AF-2 (EBR85, T-sensitive, +DOX) and AF-3 (EBR89, T-insensitive, -DOX) and reference compound (DOX) on the cell migration capability of Hs-578T cells was assessed through the wound-healing assay. mSLNs (with and without DOX) at the IC50 DOX concentration and equivalent mSLNs were used in the experiment. EBR89 (without DOX) was selected to study the effect of the nanoparticle nature on this tumorigenic feature and evaluate its toxicity. Cell migration and invasion are two hallmarks of cancer correlated to cancer progression and metastasis which correspond to a worse cancer prognosis.\nResults are presented as mean ± SD of at least three independent experiments."}},
  "note": "“Also recorded” adds a separate entry of the source.",
  "data": [
    {"smiles": "COc1cccc2c1C(=O)c1c(O)c3c(c(O)c1C2=O)C[C@@](O)(C(=O)CO)C[C@@H]3O[C@H]1C[C@H](N)[C@H](O)[C@H](C)O1", "note": "[DOX, Doxorubicin]", "values": [
      {"measurement": "regression in the tumors' area", "setting": "[1]", "result": 11, "unit": "%"},
      {"measurement": "toxicity to the chick embryo", "setting": "[2]", "result": "no toxicity"},
      {"measurement": "IC50", "setting": "[3]; 72h, without magnetic hyperthermia", "result": 1.6, "unit": "µM"},
      {"measurement": "IC50", "setting": "[3]; Figure 4C experiment, EBR85 with 1h magnetic hyperthermia then 72 h, free DOX as reference", "result": 1.52, "unit": "µM"},
      {"measurement": "polyspheroid growth", "setting": "[4]", "result": "continued to grow during the first week of treatment; also recorded: slowing down its growth"},
      {"measurement": "cell migration capability", "setting": "[5]", "result": "very low migration capability"}
    ]}
  ]
}
